Experiments:
[1] = Displacement of radioligand [3H]- DPDPE on Opioid receptor delta 1 in monkey brain membranes
[2] = Displacement of radioligand [3H]- DPDPE on Opioid receptor delta 1 in monkey brain membranes range; Value ranges from (34.0-43.2)
[3] = Displacement of radioligand [3H]- DAMGO on Opioid receptor mu 1 in monkey brain membranes range; Value ranges from (0.32-0.91)
[4] = Displacement of radioligand [3H]- U-69,593 on Opioid receptor kappa 1 in monkey brain membranes range; Value ranges from (9.7-14.2)

SMILES | Ki [1] | Ki [2] | Ki [3] | Ki [4]
O=C(/C=C/c1ccc(Cl)cc1)N[C@@]12CCC(=O)[C@@H]3Oc4c(O)ccc5c4[C@@]31CCN(CC1CC1)[C@@H]2C5 [1N-[4-cyclopropylmethyl-10-hydroxy-14-oxo-(17S)-12-oxa-4-azapentacyclo[9.6.1.01,13.05,17.07,18]octadeca-7,9,11(18)-trien-17-yl]-3-(4-chlorophenyl)-(E)-2-propenamide(Clocinnamox (C-CAM))] | 1.6 nM |  |  | 
COc1ccc2c3c1O[C@H]1C(=O)CC[C@@]4(NC(=O)/C=C/c5ccc(Cl)cc5)[C@@H](C2)N(CC2CC2)CC[C@]314 [1N-[4-cyclopropylmethyl-10-methoxy-14-oxo-(13R)-12-oxa-4-azapentacyclo[9.6.1.01,13.05,17.07,18]octadeca-7,9,11(18)-trien-17-yl]-3-(4-chlorophenyl)-(E)-2-propenamide] | 4.5 nM |  |  | 
O=C(/C=C/c1ccc(Cl)cc1)NC12CCC(=O)C3Oc4cccc5c4[C@@]31CCN(CC1CC1)C2C5 (stereo partly drawn) [1N-[4-cyclopropylmethyl-14-oxo-(13R)-12-oxa-4-azapentacyclo[9.6.1.01,13.05,17.07,18]octadeca-7,9,11(18)-trien-17-yl]-3-(4-chlorophenyl)-(E)-2-propenamide] |  | 37 nM | 0.54 nM | 12 nM

— BindingDB's records for doi:10.1021/jm0009641 (University of Bristol, 2000)
